Tests used:
[1] = test system: alkaline phosphatase (AP); experiment: Chemiluminescent detection of alkaline phosphatase with acridan phosphate and cationic aromatic compound (CAC); assay type: biochemical
AP-labeled antibody = experiment: Western blot assay with compound 5 and lucigenin; conditions: 0.66 mM 5, 64 μM lucigenin, 0.1 M tris pH 8.8; PVDF membrane
Description: A composition of the present invention were used to detect and quantify a protein, human transferrin in a Western blot with an AP-labeled antibody on a polyvinylidene difluoride (PVDF) membrane. Dilutions of transferrin containing from 5000, 1000, 180, 30 and 5 pg, respectively, of protein were electrophoresed and transferred to PVDF membranes (Millipore, Bedford, Mass.). The transferrin bands were blocked with and then reacted sequentially with goat anti-human transferrin and rabbit anti-goat-AP conjugate. The membranes were soaked briefly with reagents comprising 0.1 M tris buffer, pH 8.8 containing 0.88 mM MgCl2, 0.66 mM compound 5 and 64 μM lucigenin. The membranes were placed between transparent plastic sheets and exposed to X-ray film. The bands for human transferrin were detected after 10 min with a 2.5 min exposure. The light produced using this composition led to intense emission which could be imaged for several hours.
Similar results were obtained using nitrocellulose blotting membrane instead of PVDF membrane.

[2] = test system: alkaline phosphatase (AP); experiment: Chemiluminescent detection of alkaline phosphatase with acridan phosphate and surfactant enhancer; assay type: biochemical; conditions: 0.66 mM 5, 0.2 M 2-methyl-2-amino-1-propanol pH 9.6, 0.5 mg/mL Enhancer A; 10^−13 mol AP, 25° C.

CN1c2ccccc2C(=C(OP(=O)([O-])[O-])Sc2ccccc2)c2ccccc21.[Na+].[Na+] [Compound 5, 9-(Phenylthiophosphoryloxymethylidene)-10-methylacridan, disodium salt]
time to maximum chemiluminescence intensity ([1]; 0.66 mM 5, 6.4 μM lucigenin, 1 mg/mL SDS, 0.01 mg/mL Na2SO3, 0.033% TWEEN 20, tris pH 8.8, 8×10^−16 mol AP, 25° C.): 2 min
S at 36 min (plateau intensity) ([1]; 21 mM CAC in DMSO diluted 1:1000 into compound 5 in 0.1 M tris pH 8.8, 4×10^−16 mol AP, room temperature): 34.7
period for which emission could be imaged (AP-labeled antibody): several hours
chemiluminescence on reaction with AP [2]: easily measurable blue chemiluminescence
time to maximum chemiluminescence intensity [2]: 2 min
